For the assay, the target named is T1, P70S6K (Homo sapiens, UniProt P23443, T412E).
T1 construct: purchased Millipore
Description: P70S6K enzyme assay. Format: biochemical. The following applies: P70S6K T412E mutant 3 nM, 24 μM ATP, FITC-AHA-AKRRRLSSLRA-OH substrate, 90 min at 25° C.; read-out: IC50p70S6K. How it is done: P70S6K inhibitor compounds are diluted and plated in 96 well plates. A reaction mixture including the following components is then added to the compound plate to initiate the enzyme reaction; P70S6K (3 nM, T412E mutant, Millipore) is mixed with 24 μM ATP in an assay buffer containing 100 mM Hepes (pH 7.5), 5 mM MgCl2, 1 mM DTT, 0.015% Brij and 1 μM of the substrate peptide FITC-AHA-AKRRRLSSLRA-OH (derived from the S6 ribosomal protein sequence, FITC=fluorescein isothiocyanate, AHA=6-aminohexanoic acid). The reaction is incubated for 90 min at 25° C., before the addition of 10 mM EDTA to stop the reaction. The proportion of substrate and product (phosphorylated) peptide is analyzed on a Caliper Life Sciences Lab Chip 3000, using a pressure of −1.4 psi, and upstream and downstream voltages of −3000 and −700 respectively. Product peaks are resolved before substrate peaks on the resulting chromatograms.
To assess the inhibitory potential of the compounds, IC50-values were determined, as shown in Chemical Synthesis section above.

Structures are written as SMILES.

T1 sequence (P23443 whole entry T412E): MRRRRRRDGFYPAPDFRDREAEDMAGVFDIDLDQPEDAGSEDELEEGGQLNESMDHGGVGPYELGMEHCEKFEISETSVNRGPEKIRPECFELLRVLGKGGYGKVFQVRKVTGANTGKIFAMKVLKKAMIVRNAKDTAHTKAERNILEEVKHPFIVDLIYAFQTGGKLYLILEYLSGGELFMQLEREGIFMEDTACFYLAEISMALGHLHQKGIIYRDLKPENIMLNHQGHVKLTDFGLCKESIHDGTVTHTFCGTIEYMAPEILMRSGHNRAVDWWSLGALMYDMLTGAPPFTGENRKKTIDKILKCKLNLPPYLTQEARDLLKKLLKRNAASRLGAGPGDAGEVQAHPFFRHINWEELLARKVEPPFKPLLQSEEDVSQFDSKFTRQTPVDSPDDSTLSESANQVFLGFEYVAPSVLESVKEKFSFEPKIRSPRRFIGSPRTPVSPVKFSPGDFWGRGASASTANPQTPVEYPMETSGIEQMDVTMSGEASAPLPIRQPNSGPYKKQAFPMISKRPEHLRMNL

`CCc1nc(N[C@@H]2CNCC[C@H]2c2cccc(C)c2)c2cccc(C(N)=O)c2n1` (racemic) [compound 144]: the IC50 stood at 5 nM. In the case of `NC(=O)c1cccc2c(N[C@H]3CNC[C@@H]3c3ccc4ccccc4c3)ncnc12` [compound 80, 4-(((3R,4S)-4-(naphthalen-2-yl)pyrrolidin-3-yl)amino)quinazoline-8-carboxamide], the IC50 was found to be 24 nM.

As for `NC(=O)c1cccc2c(N[C@H]3CNC[C@H]3c3ccc(C(F)(F)F)cc3)ncnc12` [compound 54, 4-(((3R,4R)-4-(4-(trifluoromethyl)phenyl)pyrrolidin-3-yl)amino)quinazoline-8-carboxamide], the IC50 was 1.3 nM. Take `NC(=O)c1cccc2c(N[C@H]3CNC[C@@H]3c3cc(F)c(F)cc3F)ncnc12` (racemic) [compound 105, 4-(((3R,4S)-4-(2,4,5-trifluorophenyl)pyrrolidin-3-yl)amino)quinazoline-8-carboxamide]: the IC50 came out at 420 nM. For the compound `NC(=O)c1cccc2c(N[C@H]3CNC[C@@H]3c3ccc(OC(F)(F)F)cc3)ncnc12` (racemic) [compound 59], the IC50 was 1.7 nM. With `NC(=O)c1cccc2c(N[C@@H]3CNC[C@@H]3c3cccc(OC(F)(F)F)c3)ncnc12` (racemic) [compound 55], the IC50 came to 9 nM.

For the compound `CCc1nc(N[C@@H]2CNCC[C@H]2c2ccccc2F)c2cccc(C(N)=O)c2n1` (racemic) [compound 142], the IC50 turned out to be 450 nM.

Regarding `NC(=O)c1cccc2c(N[C@H]3CNC[C@@H]3c3cccc(C(F)(F)F)c3)ncnc12` [compound 50, 4-(((3R,4S)-4-(3-(trifluoromethyl)phenyl)pyrrolidin-3-yl)amino)quinazoline-8-carboxamide], the IC50 was found to be 3 nM. With `NC(=O)c1cccc2c(N[C@H]3CNC[C@@H]3c3cccc(C(F)(F)F)c3)ncnc12` (racemic) [compound 48] the figure was 1.7 nM; with `NC(=O)c1cccc2c(N[C@H]3CNC[C@@H]3c3cccc(OC(F)(F)F)c3)ncnc12` [compound 57], 2.1 nM; with `COc1ccccc1C1CNCC1Nc1ncnc2c(C(N)=O)cccc12` (stereo not shown) [compound 8, 4-((4-(2-methoxyphenyl)pyrrolidin-3-yl)amino)quinazoline-8-carboxamide], 18 nM. For the compound `NC(=O)c1cccc2c(N[C@H]3CNC[C@@H]3c3ccc(Cl)c(F)c3)ncnc12` [compound 112, 4-(((3R,4S)-4-(4-chloro-3-fluorophenyl)pyrrolidin-3-yl)amino)quinazoline-8-carboxamide], the IC50 was 330 nM. As for `NC(=O)c1cccc2c(N[C@H]3CNC[C@@H]3c3ccc(C(F)(F)F)cc3)ncnc12` (racemic) [compound 52], the IC50 turned out to be 6.5 nM. `NC(=O)c1cccc2c(N[C@H]3CNC[C@@H]3c3cccc(F)c3F)ncnc12` (racemic) [compound 116]: the IC50 was determined as 4.1 nM. As for `COc1cccc([C@@H]2CCNC[C@H]2Nc2nc(C)nc3c(C(N)=O)cccc23)c1` (racemic) [compound 126], the IC50 was 4.5 nM.

Take `Cc1c(F)cccc1[C@H]1CNC[C@@H]1Nc1ncnc2c(C(N)=O)cccc12` (racemic) [compound 92]: the IC50 amounted to 2 nM. As for `NC(=O)c1cccc2c(N[C@H]3CNC[C@@H]3c3ccc(F)c(-c4cccnc4)c3)ncnc12` (racemic) [compound 119], the IC50 is 15 nM.

Turning to `NC(=O)c1cc(F)cc2c(N[C@@H]3CNCC[C@H]3c3ccccc3)ncnc12` (racemic) [compound 146, 6-fluoro-4-(((3R,4R)-4-phenylpiperidin-3-yl)amino)quinazoline-8-carboxamide], the IC50 was found to be 7.1 nM. The same measure for `NC(=O)c1cccc2c(N[C@H]3CNC[C@@H]3c3ccc(OC(F)(F)F)cc3)ncnc12` [compound 60, 4-(((3R,4S)-4-(4-(trifluoromethoxy)phenyl)pyrrolidin-3-yl)amino)quinazoline-8-carboxamide]: 120 nM; for `NC(=O)c1cccc2c(N[C@@H]3CNC[C@H]3c3cccc(C(F)(F)F)c3)ncnc12` [compound 49, 4-(((3S,4R)-4-(3-(trifluoromethyl)phenyl)pyrrolidin-3-yl)amino)quinazoline-8-carboxamide]: 60 nM. For the compound `NC(=O)c1cccc2c(N[C@@H]3CNC[C@H]3c3cc(F)c(F)cc3F)ncnc12` [compound 106, 4-(((3S,4R)-4-(2,4,5-trifluorophenyl)pyrrolidin-3-yl)amino)quinazoline-8-carboxamide], the IC50 worked out at 2.8 nM. In the case of `COc1ccc([C@H]2CNC[C@@H]2Nc2ncnc3c(C(N)=O)cccc23)cc1F` [compound 63, 4-(((3R,4S)-4-(3-fluoro-4-methoxyphenyl)pyrrolidin-3-yl)amino)quinazoline-8-carboxamide], the IC50 came out at 810 nM. As to `NC(=O)c1cccc2c(N[C@@H]3CNCC[C@H]3c3ccc(F)cc3)ncnc12` (racemic) [compound 32, 4-((4-(4-fluorophenyl)piperidin-3-yl)amino)quinazoline-8-carboxamide], the IC50 was 3.2 nM.

Consider `NC(=O)c1cccc2c(N[C@@H]3CNCC[C@H]3c3cc(F)cc(C(F)(F)F)c3)ncnc12` (racemic) [compound 140], for which the IC50 came to 3.1 nM. For the compound `N#Cc1cccc([C@H]2CNC[C@@H]2Nc2ncnc3c(C(N)=O)cccc23)c1` [compound 87, 4-(((3R,4S)-4-(3-cyanophenyl)pyrrolidin-3-yl)amino)quinazoline-8-carboxamide], the IC50 turned out to be 81 nM. The same measure for `NC(=O)c1cccc2c(N[C@H]3CNC[C@@H]3c3ccc4ccccc4c3)ncnc12` (racemic) [compound 110]: 1.54 nM. Take `NC(=O)c1cccc2c(N[C@@H]3CNC[C@H]3c3cc(F)cc(C(F)(F)F)c3)ncnc12` [compound 46, 4-(((3S,4R)-4-(3-fluoro-5-(trifluoromethyl)phenyl)pyrrolidin-3-yl)amino)quinazoline-8-carboxamide]: the IC50 was 2.6 nM. Consider `NC(=O)c1cccc2c(N[C@@H]3CNCC[C@H]3c3ccc(C(F)(F)F)cc3)ncnc12` [compound 128], for which the IC50 was 230 nM. In the case of `CN1CC[C@@H](c2ccccc2)[C@H](Nc2ncnc3c(C(N)=O)cccc23)C1` (racemic) [compound 124], the IC50 stood at 22 nM. With `COc1cccc(C2CNCC2Nc2ncnc3c(C(N)=O)cccc23)c1` (stereo not shown) [compound 7, 4-((4-(3-methoxyphenyl)pyrrolidin-3-yl)amino)quinazoline-8-carboxamide] the figure was 2.6 nM. With `Cc1ccc(C2CCN(C(=O)OCc3ccccc3)CC2Nc2ncnc3c(C(N)=O)cccc23)cc1F` (racemic) [compound 35, Benzyl 3-((8-carbamoylquinazolin-4-yl)amino)-4-(3-fluoro-4-methylphenyl)piperidine-1-carboxylate], the IC50 was 1000 nM.

Regarding `N#Cc1cccc([C@@H]2CNC[C@@H]2Nc2ncnc3c(C(N)=O)cccc23)c1` (racemic) [compound 86], the IC50 was determined as 14 nM. On to `NC(=O)c1cccc2c(NC3CNCC3c3cccc(Cl)c3)ncnc12` (racemic) [compound 9, 4-((4-(3-chlorophenyl)pyrrolidin-3-yl)amino)quinazoline-8-carboxamide], for which the IC50 amounted to 1.3 nM. Turning to `COc1ccc(C2CNCC2Nc2ncnc3c(C(N)=O)cccc23)cc1` (stereo not shown) [compound 6, 4-((4-(4-methoxyphenyl)pyrrolidin-3-yl)amino)quinazoline-8-carboxamide], the IC50 turned out to be 2 nM.

(Values after patent US10087166B2, “Cyclic amine azaheterocyclic carboxamides” (Merck Patent GmbH, priority 2010, dated 2018).)
